Converted amounts (≈) assume the structure as drawn. Where two headings read alike, the source gives them in different places.
What was measured:
ZFL cells [1] = test: Mass balance model (MBM) prediction of Cfree and Ccell; set-up: species or system zebrafish
Method: Ccell and Cfree were determined for the BDE-47 using Fisher et al.’s mass balance model (MBM). In brief, the test system parameters for the experiment (Table S3) and BDE-47 distribution parameters (Table S4) estimated by the UFZ-LSER Calculation Partition System tool were first entered into the MBM spreadsheet. Although this model includes preset parameters for various cell lines, the input fields for cell-line type and culture medium were left empty for ZFL, and generic parameters were applied instead. Then, data for fractions of cell (fcell), total medium (fmedium), cell membrane (fmem) and the water phase of the medium (fw,medium) compartment were output (Table S5) and applied to each experimentally determined BDE-47 Cmedium to estimate the Cfree, MBM and Ccell, MBM at each exposure time.

[2] = Abiotic (volatilization) losses, contaminated medium without cells; type: physicochemical
Method: A total of 2 × 10^6 ZFL cells were plated in P100 glass dishes and incubated for 24 h under standard culture conditions. Subsequently, the culture medium was replaced with a contaminated medium, which, according to the cell viability assay, maintained viability above 70% by the end of the exposure period (Section 2.3). Cells were exposed to 1.8 and 2.6 mg⋅L^−1 for 24, 48 and 72 h, in two independent experiments. Parallel experiments were conducted under identical conditions to assess losses: one set included cells without contaminated medium, and another consisted of contaminated medium without cells (“no cells”). The obtained pellets were collected from all exposure time, dried under a gentle stream of nitrogen and weighed on a precision analytical balance (±0.00001 g). Finally, the dried cell pellets and their corresponding medium collected at all exposure times, including the starting medium (“t = 0 h”), were stored at −20 °C until analysis.
(§1) One of the objectives was to assess whether cell lines can be used within the BCF-IVIVE model, relying on intrinsic clearance in vitro, to estimate the biotransformation rate which is subsequently extrapolated to adult fish. This approach is based on the model developed by Nichols et al. and is endorsed by the OECD guideline 319A [10] and OECD 2018a. Briefly, the log10-transformed substrate experimental concentrations in the medium (Cmed) were plotted against time, and the first-order elimination rate constant (ke, h^−1) was determined as −2.3 × slope of the log-linear decline. Black et al. indicate that a correction to the elimination rate constant (ke) should be applied when the following conditions are met: (i) abiotic losses from volatilization, calculated by comparing the recovery of negative control samples (“no cells”) at each exposure time to the initial time, fall outside the acceptable range of 80–120%, (ii) the loss process follows first order kinetics, and (iii) the ratio of ke and the volatilization rate constant (kvolat) is below 10 (ke/kvolat < 10). Then, the constant corrected for losses due to volatilization (ke,loss) was determined as −2.3 × the difference of the slopes of the sample and the loss control of the log-linear descent. The in vitro constant was then extrapolated to obtain an in vivo metabolization constant (kMET). This was done using experimental cell concentration (CHEP, 10^6 cells/mL) and default parameters derived from rainbow trout. In this study, in addition to estimating BCF with the official model parameters derived from rainbow trout (BCFIVIVE,RT), BCF was also estimated with the literature-derived parameters for zebrafish (BCFIVIVE,ZF), due to the use of ZFL cells. Finally, the BCF was estimated by the ratio of concentration in the organism to concentration in the medium, following the standardized model. The concentration in the organism was predicted using the one-compartment model given by Arnot and Gobas, which includes the rate constants describing chemical uptake (k1), loss through the gills (k2), fecal egestion (kE), growth rate (kG) and metabolization rate (kMET). Except for kMET, which is estimated experimentally in vitro, the rest are only dependent on the log KOW of the compound. On the other hand, due to the use of cell lines, the free concentration estimated was introduced instead of the total concentration in the medium (CW,TOT).

ZFL cells [3] = test: Substrate depletion in ZFL cells, inputs of the IVIVE-BCF model; type: in vitro ADME, zebrafish
Description: One of the objectives was to assess whether cell lines can be used within the BCF-IVIVE model, relying on intrinsic clearance in vitro, to estimate the biotransformation rate which is subsequently extrapolated to adult fish. This approach is based on the model developed by Nichols et al. and is endorsed by the OECD guideline 319A [10] and OECD 2018a. Briefly, the log10-transformed substrate experimental concentrations in the medium (Cmed) were plotted against time, and the first-order elimination rate constant (ke, h^−1) was determined as −2.3 × slope of the log-linear decline. Black et al. indicate that a correction to the elimination rate constant (ke) should be applied when the following conditions are met: (i) abiotic losses from volatilization, calculated by comparing the recovery of negative control samples (“no cells”) at each exposure time to the initial time, fall outside the acceptable range of 80–120%, (ii) the loss process follows first order kinetics, and (iii) the ratio of ke and the volatilization rate constant (kvolat) is below 10 (ke/kvolat < 10). Then, the constant corrected for losses due to volatilization (ke,loss) was determined as −2.3 × the difference of the slopes of the sample and the loss control of the log-linear descent. The in vitro constant was then extrapolated to obtain an in vivo metabolization constant (kMET). This was done using experimental cell concentration (CHEP, 10^6 cells/mL) and default parameters derived from rainbow trout. In this study, in addition to estimating BCF with the official model parameters derived from rainbow trout (BCFIVIVE,RT), BCF was also estimated with the literature-derived parameters for zebrafish (BCFIVIVE,ZF), due to the use of ZFL cells. Finally, the BCF was estimated by the ratio of concentration in the organism to concentration in the medium, following the standardized model. […]

rainbow trout = test: IVIVE-BCF model with rainbow trout default parameters; type: in vitro ADME; conditions: for BCFIVIVE, RT: ZFL cells, rainbow trout parameters
Description: as §1

ZFL cells [4] = system: ZFL cells; set-up: method as in PMID 25544063; conditions: 10% FBS, cited from earlier work
zebrafish = test: IVIVE-BCF model with zebrafish default parameters; type: in vitro ADME; conditions: k1 and k2 from experimental Ccell and Cfree
[5] = system: zebrafish eleutheroembryos; set-up: method as in PMID 36705440; conditions: cited from earlier work
[6] = system: Mytilus galloprovincialis (mussel); conditions: cited from earlier work
young Psetta maxima = system: young Psetta maxima; set-up: method as in doi:10.1007/s11270-014-2072-0; conditions: cited from earlier work
Gammarus pulex = system: Gammarus pulex; set-up: method as in PMID 24879528; conditions: 1 µg·L^−1; cited from earlier work

With `Brc1ccc(Oc2ccc(Br)cc2Br)c(Br)c1` [BDE-47, 2,2′,4,4′-tetrabromodiphenyl ether] the “Ratio MBM/experimental of internal concentration” value (“Ratio MBM/experimental” for short) (ZFL cells [1]; 24h, 1.8 mg·L-1, ZFL cells) was 51%, the “Ratio MBM/experimental” value (ZFL cells [1]; 24h, 2.6 mg·L-1, ZFL cells) was 73% and the “Ratio MBM/experimental” value (ZFL cells [1]; 48h, 1.8 mg·L-1, ZFL cells) was 44%. The “Ratio MBM/experimental” value (ZFL cells [1]; 48h, 2.6 mg·L-1, ZFL cells) was 78%, the “Ratio MBM/experimental” value (ZFL cells [1]; 72h, 1.8 mg·L-1, ZFL cells) was 36% and the “Ratio MBM/experimental” value (ZFL cells [1]; 72h, 2.6 mg·L-1, ZFL cells) was 66%. For the same molecule, the “Recovery of losses from volatilization (% Rec. Vol.)” value (from here on “Recovery of losses … (% Rec. Vol.)”) ([2]; 24h, 1.8 mg·L-1, no cells vs time 0h) was 76%, the “Recovery of losses … (% Rec. Vol.)” value ([2]; 24h, 2.6 mg·L-1, no cells vs time 0h) was 73% and the “Recovery of losses … (% Rec. Vol.)” value ([2]; 48h, 1.8 mg·L-1, no cells vs time 0h) was 69%. The “Recovery of losses … (% Rec. Vol.)” value ([2]; 48h, 2.6 mg·L-1, no cells vs time 0h) was 63%, the “Recovery of losses … (% Rec. Vol.)” value ([2]; 72h, 1.8 mg·L-1, no cells vs time 0h) was 68% and the “Recovery of losses … (% Rec. Vol.)” value ([2]; 72h, 2.6 mg·L-1, no cells vs time 0h) was 52%. The “decrease in Cmedium,no cells with respect to nominal concentration” value ([2]; Cnominal 1.8 mg·L^−1, cell-free sample) was 29%, the “decrease in Cmedium,no cells with respect to nominal concentration” value ([2]; Cnominal 2.6 mg·L^−1, cell-free sample) was 37% and the “ke,loss” value (ZFL cells [3]; Experiment 1.8 mg·L-1, corrected for volatilization losses) was 0.012 h⁻¹. The “ke,loss” value (ZFL cells [3]; Experiment 2.6 mg·L-1, corrected for volatilization losses) was 0.002 h⁻¹, the “Cw, TOT (Cfree,exp)” value (ZFL cells [3]; Experiment 2.6 mg·L-1, input parameter) was 0.0016 mg/L and the CLH (rainbow trout; 1.8 mg·L-1, RT) was 8.217 mL/h/kg. The “CLIN VITRO, INT” value (rainbow trout; 1.8 mg·L-1, RT) was 0.0220 mL/h/106 cells, the kMET (rainbow trout; 1.8 mg·L-1, RT) was 0.0092 day⁻¹ and the CLH (rainbow trout; 2.6 mg·L-1, RT) was 1.38 mL/h/kg. The “CLIN VITRO, INT” value (rainbow trout; 2.6 mg·L-1, RT) was 0.0037 mL/h/106 cells, the kMET (rainbow trout; 2.6 mg·L-1, RT) was 0.0015 day⁻¹ and the “BCFIVIVE, RT” value (rainbow trout; Cnominal 1.8 mg·L^−1) was 7221 L/kg. For the same molecule, the “BCFIVIVE, RT” value (rainbow trout; Cnominal 2.6 mg·L^−1) was 14,184 L·kg^−1, the “LC50 (24 h)” value (ZFL cells [4]; 24 h) was 1.60 µg/mL (≈ 3.29 µM) and the “LC50 (96 h)” value (ZFL cells [4]; 96 h) was 1.26 µg/mL (≈ 2.59 µM). The “BCFIVIVE, ZF, exp” value (zebrafish; Cnominal 1.8 mg·L^−1) was 22,614 L·kg^−1, the “BCFIVIVE, ZF, exp” value (zebrafish; Cnominal 2.6 mg·L^−1) was 38,948 L·kg^−1 and the BCF48 h ([5]; 1 µg·L^−1, zebrafish larvae) was 16,392 L·kg^−1. For the same molecule, the BCFk ([5]; 1 µg·L^−1, zebrafish larvae) was 36,363 L·kg^−1, the BCF48 h ([5]; 10 µg·L^−1, zebrafish larvae) was 4106 L/kg and the BCFk ([5]; 10 µg·L^−1, zebrafish larvae) was 7295 L/kg. The BCFk ([6]; 0.31 ng·L^−1) was 26,000 L·kg^−1, the BCFk ([6]; 8 µg·L^−1) was 10,900 L·kg^−1 and the BCFk (young Psetta maxima; 0.001 µg·L^−1) was 33,103 L·kg^−1. The BCFk (young Psetta maxima; 0.1 µg·L^−1) was 15,531 L·kg^−1, the BCFk (young Psetta maxima; 1 µg·L^−1) was 24,125 L·kg^−1 and the BCFk (Gammarus pulex) was about 5000 L/kg.
